The assay in a line: Paper example: vitamin D3 supplementation with daily light and fixed orthodontic appliance. The format is in vivo, human. The settings on record: passive phase; continued vitamin D3 2000 to 12,000 IU orally per day. The protocol:
In one example, an adult patient's Vitamin D3 blood-serum level is measured during their routine orthodontic-examination and -records appointment. Laboratory results can indicate that the patient's vitamin D3 serum levels are at 20 ng/ml, which is considered to be deficient and abnormal. In this example, the patient's orthodontic diagnosis is Class I mild crowding with 4 mm of crowding on the upper arch and 4 mm on the lower arch. An orthodontic treatment plan can be formulated to comprise the installation of a fixed orthodontic appliance with some mild expansion of the upper and lower arches.
In this example, the patient self-administers oral oil-based vitamin D3 capsules at an amount of 6000 IU per day for 3 months to increase and normalize their vitamin D3 serum levels. Laboratory serum testing can optionally be performed again after 3 months of vitamin D3 supplementation. The patient can maintains or adjusts their oral dose of vitamin D3 based on their subsequent lab results. It should be understood that there are a number of alternative oral and/or systemic dosing protocols for vitamin D administration that could be followed to achieve similar results. The dosing protocol outlined above is merely one of many approaches.
In this example, orthodontic treatment can start either after the 3 month period or no more than about three months prior. […]

Structures are written as SMILES.

In the case of `C=C1CC[C@H](O)C/C1=C/C=C1\CCC[C@]2(C)[C@@H]([C@H](C)CCCC(C)C)CC[C@@H]12` [vitamin D3], the “alveolar bone density around the teeth” value was “increased”.

Values taken from patent US20190083202A1, “APPARATUS AND METHODS USEFUL FOR REMODELING MAXILLOFACIAL BONE USING LIGHT THERAPY, AN ORTHODONTIC APPLIANCE, AND OPTIONALLY, VITAMIN D ADMINISTRATION” (priority 2017, published 2019).
